This note sets out measurements from publication PMC9367672, “In vitro differences in toddalolactone metabolism in various species and its effect on cytochrome P450 expression” (Pharmaceutical Biology, 2022).

Series [1] in a line: Metabolic stability assessment in rabbit liver microsomes. In kind it is in vitro ADME. The following applies: pH 7.4, RAMs, toddalolactone 20 μM, 0-90 min. As for the experimental part:
(§1) The CYP reaction system (200 μL) consisted of 0.1 M potassium phosphate buffer (pH 7.4), an NADPH-generating system (1 mM NADPH, 10 mM G-6-P, 1 unit/mL G-6-PD, 4 mM MgCl2), and liver microsomes or recombinant human microsomes (supersomes). Each of the in vitro enzymatic assays using liver microsomes was linear with respect to incubation time and amount of protein. After a pre-incubation at 37 °C for 3 min, the reactions were initiated by adding NADP^+. After incubating for 60 min, the reactions were quenched by adding 200 μL of ice-cold acetonitrile. Samples were centrifuged at 18,000 g for 15 min at 4 °C and 10 μL of supernatant was analyzed using an HPLC system. […]
(§2) In the UGT reaction system, liver microsomes were incubated in 200 μL of the reaction system containing 4 mM UDPGA, 5 mM MgCl2, 20 µg/mL alamethicin, and 50 mM Tris-HCl buffer (pH 7.4). […] After centrifugation at 18,000 g for 15 min, 10 μL of the supernatant was analyzed by HPLC.
(§3) Toddalolactone (20 μM) was incubated with different liver microsomes, including HLMs, DLMs, PLMs, MLMs, RAMs, RLMs or MIMs in oxidative metabolism and glucuronidation reaction systems. […] The mixtures were centrifuged at 18,000 g for 15 min at 4 °C and then 10 μL of the supernatant was analyzed by HPLC. […]
(§4) The peak areas of toddalolactone and its metabolites were detected using a HPLC system (Shimadzu, Kyoto, Japan). […]
(Liver microsomes are a subcellular fraction often used to study metabolism.)

A short description of series [2]: Metabolic stability assessment in mouse liver microsomes. The class given is in vitro ADME. The following applies: pH 7.4, MIMs, CYP incubation system, toddalolactone 20 μM, 0-90 min, read-out: half-life value (T1/2). The method, then: as §1, §2, §3, §4
Series [3] relates to CYP1A1. Nature of the series: Western blot of CYP1A1 protein expression in HepG2 cells. In kind it is cell-based. The following applies: 50 μM, 24 h, vs control (0 μM), p < 0.05. The method, then:
(§5) Hep G2 cells were seeded into 100 mm Petri dishes and treated with different concentrations of toddalolactone (0, 10 and 50 µmol/L) for 24 h. Total protein was extracted using RIPA lysis buffer containing proteinase inhibitor (BestBio, Shanghai, China). After the protein concentration was measured using a bicinchoninic acid (BCA) assay kit (Beyotime, Shanghai, China), samples were electrophoretically transferred to polyvinylidene difluoride (PVDF) membranes. After blocking with TTBS (0.5% Tween 20, 10 mM Tris-HCl, pH 7.5, 150 mM NaCl) containing 5% non-fat milk for 1 h at room temperature, the membrane was incubated with antibodies against β-Actin, CYP1A1, and CYP3A5 overnight at 4 °C. Then, membranes were washed with TBS (10 mM Tris-HCl, pH 7.5, 150 mM NaCl) containing 0.05% Tween 20 three times and further incubated with HRP-conjugated secondary antibodies against rabbit (for β-actin, CYP1A1 and CYP3A5) for 1 h at room temperature.
For orientation: In western blotting, separated proteins are transferred to a membrane and probed.

The test system of the next series is CYP3A5. Put plainly: Western blot of CYP3A5 protein expression in HepG2 cells. The class given is cell-based. The following applies: 0, 10 and 50 μM, 24 h. As for the experimental part:
as §5

Series [4] deals with T1, CYP1A1 (Homo sapiens, UniProt P04798).
T1 sequence (P04798 1-512): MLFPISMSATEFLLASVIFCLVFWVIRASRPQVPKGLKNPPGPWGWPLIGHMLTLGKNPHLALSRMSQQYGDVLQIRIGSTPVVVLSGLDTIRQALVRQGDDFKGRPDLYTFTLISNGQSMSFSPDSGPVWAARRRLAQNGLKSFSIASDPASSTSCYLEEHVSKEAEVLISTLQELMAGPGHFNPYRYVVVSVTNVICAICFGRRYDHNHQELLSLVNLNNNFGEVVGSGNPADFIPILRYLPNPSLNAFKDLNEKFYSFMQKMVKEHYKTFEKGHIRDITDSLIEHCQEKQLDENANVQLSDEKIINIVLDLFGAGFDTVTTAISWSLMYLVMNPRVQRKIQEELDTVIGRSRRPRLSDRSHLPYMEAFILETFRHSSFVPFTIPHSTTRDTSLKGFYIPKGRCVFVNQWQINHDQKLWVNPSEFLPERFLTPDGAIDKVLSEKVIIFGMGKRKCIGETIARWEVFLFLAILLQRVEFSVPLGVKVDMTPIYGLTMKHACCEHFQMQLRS
Nature of the series: Reaction phenotyping with recombinant human CYP1A1. In kind it is in vitro ADME. Set-up: purchased Corning Life Sciences (Corning, MA). The following applies: CYP1A1 15 nM, 37 °C, 60 min; P4 main metabolite. The method, then: The CYP reaction system (200 μL) consisted of 0.1 M potassium phosphate buffer (pH 7.4), an NADPH-generating system (1 mM NADPH, 10 mM G-6-P, 1 unit/mL G-6-PD, 4 mM MgCl2), and liver microsomes or recombinant human microsomes (supersomes). Each of the in vitro enzymatic assays using liver microsomes was linear with respect to incubation time and amount of protein. After a pre-incubation at 37 °C for 3 min, the reactions were initiated by adding NADP^+. After incubating for 60 min, the reactions were quenched by adding 200 μL of ice-cold acetonitrile. Samples were centrifuged at 18,000 g for 15 min at 4 °C and 10 μL of supernatant was analyzed using an HPLC system. NADPH or CYP enzyme sources were not used in the control group to ensure that the metabolic reactions were CYP- and NADPH-dependent. All incubation assays were completed in triplicate. The data are presented as mean ± standard deviation (SD).
Thirteen cDNA-expressed human CYP isoforms (CYP1A1, CYP1A2, CYP2A6, CYP2B6, CYP2C8, CYP3A4, CYP2C19, CYP3A5, CYP1B1, CYP2C9, CYP2D6, CYP2E1 and CYP4F2) were used to identify the isoform(s) involved in the biotransformation of toddalolactone. Toddalolactone (10 μM) was incubated with each recombinant CYP (15 nM) for 60 min at 37 °C and metabolites were identified by HPLC.

Series [5] concerns the target T1, CYP1A1. Put plainly: Enzyme kinetics of toddalolactone metabolism by recombinant CYP1A1. The following applies: recombinant CYP1A1 (15 nM); P4 formation.
Protocol: The enzyme kinetics of toddalolactone in oxidative metabolism and glucuronidation were determined by incubating liver microsomes (0.2 mg/mL) or CYPs (15 nM) with different concentrations of toddalolactone (1–200 μM). […] The in vitro intrinsic clearance (CLint) was calculated based on the Vmax/Km ratio. Metabolites were quantified using the standard curve for toddalolactone because of the absence of metabolite standards. […]

Regarding `COc1cc2oc(=O)ccc2c(OC)c1C[C@@H](O)C(C)(C)O` [toddalolactone], the half-life at 20 μM was found to be 6.78 ± 0.517 h in series [1] (CYP incubation system, read-out: half-life value (T1/2)); 2.07 ± 0.138 h in series [1] (UGT incubation system, read-out: T1/2 value); 3.92 ± 0.35 h in series [2]. The “induction of CYP1A1 protein expression higher than that of the control” value in the series on CYP1A1 [3] is given as “approximately 50%”. In addition, the “protein expression of CYP3A5” value in the series with CYP3A5 is on record as “did not show any significant change”. For the same compound, the “catalysis of toddalolactone metabolism by rhCYP isoform” value at CYP1A1 [4] is on record as “predominantly catalyzed”. Further, on CYP1A1 [5], the K m is on record as 60.12 ± 6.67 µM.
